According to patent publication EP0385680B1, “Heterocyclic ethers as 5-lipoxygenase inhibitors” (ZENECA LIMITED, priority 1989, dated 1990):

Key:
5-LO = biological target: T1, 5-LO (Homo sapiens, UniProt P09917); experiment: Test b): in vitro heparinised human blood challenged with calcium ionophore A23187, radioimmunoassay of LTB4; assay type: cell-based; details: A23187 challenge, read-out: IC₅₀ against LTB₄
T1 construct: incubating a test compound with heparinised human blood, prior to challenge with the calcium ionophore A23187; endogenous in cells; host or cells: blood cells in heparinised human whole blood
T1 sequence (P09917 1-674): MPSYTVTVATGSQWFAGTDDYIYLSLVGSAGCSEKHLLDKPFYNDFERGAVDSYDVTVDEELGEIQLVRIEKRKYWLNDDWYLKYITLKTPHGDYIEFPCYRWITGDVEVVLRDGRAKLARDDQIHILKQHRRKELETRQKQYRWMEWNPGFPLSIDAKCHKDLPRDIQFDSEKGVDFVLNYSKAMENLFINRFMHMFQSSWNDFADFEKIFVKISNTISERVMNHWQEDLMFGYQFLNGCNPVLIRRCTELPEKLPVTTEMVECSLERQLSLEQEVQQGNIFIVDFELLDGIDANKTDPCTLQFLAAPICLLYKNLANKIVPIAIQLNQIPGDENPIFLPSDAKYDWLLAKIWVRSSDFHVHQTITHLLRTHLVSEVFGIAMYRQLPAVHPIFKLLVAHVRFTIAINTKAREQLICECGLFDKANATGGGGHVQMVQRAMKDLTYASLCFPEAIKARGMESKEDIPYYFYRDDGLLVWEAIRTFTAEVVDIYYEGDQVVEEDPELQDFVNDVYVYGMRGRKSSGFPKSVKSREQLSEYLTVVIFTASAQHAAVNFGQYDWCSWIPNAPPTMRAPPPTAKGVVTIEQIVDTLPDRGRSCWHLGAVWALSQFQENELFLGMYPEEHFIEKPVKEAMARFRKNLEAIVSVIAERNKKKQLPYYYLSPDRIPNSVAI
Procedure: (§1) As stated previously, the heterocyclic ethers of the formula I are inhibitors of the enzyme 5-LO. […] This test provides a measure of the intrinsic inhibitory properties against soluble 5-LO in an extracellular environment. • b) An in vitro assay system involving incubating a test compound with heparinised human blood, prior to challenge with the calcium ionophore A23187 and then indirectly measuring the inhibitory effects on 5-LO by assaying the amount of LTB₄ using the specific radioimmunoassay described by Carey and Forder (F. Carey and R.A. Forder, Brit. […] The effects of a test compound on the enzyme cyclooxygenase (which is involved in the alternative metabolic pathway for arachidonic acid and gives rise to prostaglandins, thromboxanes and related metabolites) may be measured at the same time using the specific radioimmunoassay for thromboxane B₂(TxB₂) described by Carey and Forder (see above). […] It permits the selectivity of the inhibitory effect on 5-LO or cyclooxygenase to be assessed. • c) An ex vivo assay system, which is a variation of test b) above, involving administration of a test compound (usually orally as the suspension produced when a solution of the test compound in dimethylsulphoxide is added to carboxymethylcellulose), blood collection, heparinisation, challenge with A23187 and radioimmunoassay of LTB₄ and TxB₂. […]

cyclooxygenase = biological target: T2, cyclooxygenase (Homo sapiens, UniProt P23219); experiment: Test b): in vitro heparinised human blood challenged with calcium ionophore A23187, radioimmunoassay of TxB2; assay type: cell-based; details: A23187 challenge, read-out: IC₅₀ against TxB₂
T2 construct: against 5-LO and also cyclooxygenase in the presence of blood cells and proteins; endogenous in cells; host or cells: blood cells in heparinised human whole blood
T2 sequence (P23219 24-599): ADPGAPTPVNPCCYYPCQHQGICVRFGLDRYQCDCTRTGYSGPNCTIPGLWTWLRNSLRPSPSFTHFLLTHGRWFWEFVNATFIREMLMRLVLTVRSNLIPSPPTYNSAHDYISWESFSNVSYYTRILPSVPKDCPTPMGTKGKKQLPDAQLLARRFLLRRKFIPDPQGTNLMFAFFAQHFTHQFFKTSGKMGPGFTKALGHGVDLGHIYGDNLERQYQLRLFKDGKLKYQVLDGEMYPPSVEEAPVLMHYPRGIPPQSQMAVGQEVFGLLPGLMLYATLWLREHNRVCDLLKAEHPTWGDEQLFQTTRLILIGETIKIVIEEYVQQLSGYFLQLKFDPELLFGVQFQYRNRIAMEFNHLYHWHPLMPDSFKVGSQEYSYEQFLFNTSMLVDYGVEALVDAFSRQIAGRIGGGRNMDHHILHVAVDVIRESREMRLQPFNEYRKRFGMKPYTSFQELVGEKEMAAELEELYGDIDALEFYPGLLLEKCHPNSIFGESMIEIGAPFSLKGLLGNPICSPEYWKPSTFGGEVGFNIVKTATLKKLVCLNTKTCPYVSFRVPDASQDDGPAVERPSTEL
Procedure: as §1

| IC50 (5-LO) [nM] | IC50 (cyclooxygenase) [nM] | Compound |
| --- | --- | --- |
| 100 | – | C=CCOCC(CC)(OCC=C)c1cc(F)cc(OCc2ccc3c(ccc(=O)n3C)c2)c1 (stereo not drawn) [2-allyloxy-2-[5-fluoro-3-(1,2-dihydro-1-methyl-2-oxoquinolin-6-ylmethoxy)phenyl]but-1-yl allyl ether] |
| 1000 | > 40000 | CCC(COC)(OC)c1cccc(OCC#Cc2ccccn2)c1 (stereo not drawn) [2-methoxy-2-[3-(3-(2-pyridyl)prop-2-yn-1-yloxy)phenyl]but-1-yl methyl ether] |
